# Tests used:
# barnyardgrass (Ec) [1] = assay: Test Example 1: herbicidal effects by paddy field soil treatment; type: in vivo; settings: 100 g of the active ingredient per 10 ares, 21st day after the application, index 0-5 of Table 47;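 note: grade of growth control; 5 = at least 90%; 4 = 70 to 90%; 3 = 50 to 70%; 2 = 30 to 50%; 1 = 10 to 30%; 0 = under 10%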
# Outline: (§1)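 Scoring of herbicidal effect came 21 days after application of 100 g active ingredient per 10 ares to flooded (3 cm) paddy-soil pots sown with barnyardgrass, monochoria and bulrush, kept in a greenhouse.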
# bulrush (Sc) = assay: as above; type: in vivo; settings: 100 g of the active ingredient per 10 ares, 21st day after the application, index 0-5 of Table 47;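 note: grade of growth control; 5 = at least 90%; 4 = 70 to 90%; 3 = 50 to 70%; 2 = 30 to 50%; 1 = 10 to 30%; 0 = under 10%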
# Outline: as §1
# monochoria (Mo) = assay: as above; type: in vivo; settings: 100 g of the active ingredient per 10 ares, 21st day after the application, index 0-5 of Table 47;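 note: grade of growth control; 5 = at least 90%; 4 = 70 to 90%; 3 = 50 to 70%; 2 = 30 to 50%; 1 = 10 to 30%; 0 = under 10%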
# Outline: as §1
# Digitaria ciliaris (Di) = assay: Test Example 2: herbicidal effects by upland field soil treatment; type: in vivo; settings: 100 g of the active ingredient per 10 ares;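 note: grade of growth control; 5 = at least 90%; 4 = 70 to 90%; 3 = 50 to 70%; 2 = 30 to 50%; 1 = 10 to 30%; 0 = under 10%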
# Source text: (§2) (Test on Herbicidal Effects by Upland Field Soil Treatment)
# barnyardgrass (Ec) [2] = assay: as above; type: in vivo; settings: 100 g of the active ingredient per 10 ares
# Source text: as §2
# [3] = tested on: common lambsquarters (Ch); assay: as above; type: in vivo; settings: 100 g of the active ingredient per 10 ares
# Source text: as §2
# pale smartweed (Po) [4] = assay: as above; type: in vivo; settings: 100 g of the active ingredient per 10 ares
# Source text: as §2
# rice flatsedge (Ci) [5] = assay: as above; type: in vivo; settings: 100 g of the active ingredient per 10 ares
# Source text: as §2
# slender amaranth (Am) [6] = assay: as above; type: in vivo; settings: 100 g of the active ingredient per 10 ares
# Source text: as §2
# Diaitaria ciliaris (Di) = assay: Test Example 3: herbicidal effects by upland field foliage treatment; type: in vivo; set-up: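 grade of growth control; 5 = at least 90%; 4 = 70 to 90%; 3 = 50 to 70%; 2 = 30 to 50%; 1 = 10 to 30%; 0 = under 10%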
# Outline: (§3)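 Using plants cultured for 2 weeks in a greenhouse from seed sown in soil-covered sand (pots 120 cm^2), the compounds were applied to foliage, and weed control was graded by standard criteria 14 days thereafter.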
# barnyardgrass (Ec) [7] = assay: as above; type: in vivo; set-up: scale not given here
# Outline: as §3
# [8] = tested on: common lambsquarters (Ch); assay: as above; type: in vivo; set-up: scale not given here
# Outline: as §3
# pale smartweed (Po) [9] = assay: as above; type: in vivo; set-up: scale not given here
# Outline: as §3
# rice flatsedge (Ci) [10] = assay: as above; type: in vivo; set-up: scale not given here
# Outline: as §3
# slender amaranth (Am) [11] = assay: as above; type: in vivo; set-up: scale not given here
# Outline: as §3
# wheat (Tr) [12] = assay: Test Example 9: crop plant selectivity by upland field foliage treatment (wheat), phytotoxicity; settings: dose 1.6 g ai/10a, 14th day after treatment
# Description: (§4) (Test on Crop Plant Selectivity by Upland Field Foliage Treatment)
# (§5) In a plastic pot (surface area: 600 cm^2) filled with sand, wheat (Tr), pale smartweed (Po), slender amaranth (Am), common lambsquarters (Ch) and China jute (Ab) were sown and cultured in a green house for 2 weeks. […] The plants were then cultured in a green house, and the evaluation of the herbicidal effects and phytotoxicity was conducted on the 14th day after the treatment in accordance with the standards as identified in Table 47.
# China jute (Ab) [13] = assay: Test Example 9: crop plant selectivity by upland field foliage treatment (wheat), herbicidal effects; type: in vivo; set-up: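 grade of growth control; 5 = at least 90%; 4 = 70 to 90%; 3 = 50 to 70%; 2 = 30 to 50%; 1 = 10 to 30%; 0 = under 10%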; settings: dose 1.6 g ai/10a, 14th day after treatment
# Description: as §4, §5
# [14] = tested on: common lambsquarters (Ch); assay: as above; type: in vivo; set-up: scale not given here; settings: dose 1.6 g ai/10a, 14th day after treatment
# Description: as §4, §5
# pale smartweed (Po) [15] = assay: as above; type: in vivo; set-up: scale not given here; settings: dose 1.6 g ai/10a, 14th day after treatment
# Description: as §4, §5
# slender amaranth (Am) [16] = assay: as above; type: in vivo; set-up: scale not given here; settings: dose 1.6 g ai/10a, 14th day after treatment
# Description: as §4, §5
# wheat (Tr) [17] = assay: Test Example 5: crop plant selectivity by upland field soil treatment (wheat), phytotoxicity; type: in vivo; set-up: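 grade of crop injury; 5 = at least 90%; 4 = 70 to 90%; 3 = 50 to 70%; 2 = 30 to 50%; 1 = 10 to 30%; 0 = under 10%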; settings: 21st day after application
# Description: (§6) (Test on Crop Plant Selectivity by Upland Field Soil Treatment)
# (§7) In a plastic pot (surface area: 600 cm^2) filled with sand, wheat (Tr), Diaitaria ciliaris (Di), green foxtail (Se), pale smartweed (Po), slender amaranth (Am), common lambsquarters (Ch) and China jute (Ab) were sown and covered with soil. […] The plants were then cultured in a green house, and the evaluation of the herbicidal effects and phytotoxicity was conducted on the 21st day after the application in accordance with the standards as identified in Table 47. Symbol—represents “not tested”.
# China jute (Ab) [18] = assay: Test Example 5: crop plant selectivity by upland field soil treatment (wheat), herbicidal effects; type: in vivo; set-up: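 grade of growth control; 5 = at least 90%; 4 = 70 to 90%; 3 = 50 to 70%; 2 = 30 to 50%; 1 = 10 to 30%; 0 = under 10%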; settings: 21st day after application
# Description: as §6, §7
# [19] = tested on: common lambsquarters (Ch); assay: as above; type: in vivo; set-up: scale not given here; settings: 21st day after application
# Description: as §6, §7
# green foxtail (Se) [20] = assay: as above; type: in vivo; set-up: scale not given here; settings: 21st day after application
# Description: as §6, §7
# pale smartweed (Po) [21] = assay: as above; type: in vivo; set-up: scale not given here; settings: 21st day after application
# Description: as §6, §7
# slender amaranth (Am) [22] = assay: as above; type: in vivo; set-up: scale not given here; settings: 21st day after application
# Description: as §6, §7
# cotton (Go) = assay: Test Example 4: crop plant selectivity by upland field soil treatment (cotton), phytotoxicity; type: in vivo; set-up: scale not given here; settings: evaluated 21st day after application
# Description: as §6
# (§8) In a plastic pot (surface area: 600 cm^2) filled with sand, cotton (Go), Diaitaria ciliaris (Di), green foxtail (Se), pale smartweed (Po), slender amaranth (Am), common lambsquarters (Ch) and China jute (Ab) were sown and covered with soil. […] The plants were then cultured in a green house, and the evaluation of the herbicidal effects and phytotoxicity was conducted on the 21st day after the application in accordance with the standards as identified in Table 47. Symbol—represents “not tested”.
# China jute (Ab) [23] = assay: Test Example 4: crop plant selectivity by upland field soil treatment (cotton), herbicidal effects; type: in vivo; set-up: scale not given here; settings: evaluated 21st day after application
# Description: as §6, §8
# [24] = tested on: common lambsquarters (Ch); assay: as above; type: in vivo; set-up: scale not given here; settings: evaluated 21st day after application
# Description: as §6, §8
# green foxtail (Se) [25] = assay: as above; type: in vivo; set-up: scale not given here; settings: evaluated 21st day after application
# Description: as §6, §8
# pale smartweed (Po) [26] = assay: as above; type: in vivo; set-up: scale not given here; settings: evaluated 21st day after application
# Description: as §6, §8
# slender amaranth (Am) [27] = assay: as above; type: in vivo; set-up: scale not given here; settings: evaluated 21st day after application
# Description: as §6, §8
# [28] = 21st day after the application, index 0-5 of Table 47
# [29] = 100 g of the active ingredient per 10 ares, evaluated on the 14th day after treatment
# [30] = evaluated on the 21st day after application
# [31] = 100 g active ingredient per 10 ares, evaluated 14th day after treatment
compound,measurement,setting,value
CCCOC(=O)c1cc(-c2ccc(C(F)(F)F)n(C)c2=O)c(F)cc1Cl [1-158],Herbicidal effects Ec,barnyardgrass (Ec) [1],5
same,Herbicidal effects Sc,bulrush (Sc),5
same,Herbicidal effects Mo,monochoria (Mo),5
same,Herbicidal effects Di,Digitaria ciliaris (Di); [28],5
same,Herbicidal effects Ec,barnyardgrass (Ec) [2]; [28],5
same,Herbicidal effects Ch,[3]; [28],5
same,Herbicidal effects Po,pale smartweed (Po) [4]; [28],5
same,Herbicidal effects Ci,rice flatsedge (Ci) [5]; [28],5
same,Herbicidal effects Am,slender amaranth (Am) [6]; [28],5
same,Herbicidal effects Di,Diaitaria ciliaris (Di); [29],5
same,Herbicidal effects Ec,barnyardgrass (Ec) [7]; [29],5
same,Herbicidal effects Ch,[8]; [29],5
same,Herbicidal effects Po,pale smartweed (Po) [9]; [29],5
same,Herbicidal effects Ci,rice flatsedge (Ci) [10]; [29],5
same,Herbicidal effects Am,slender amaranth (Am) [11]; [29],5
same,Phytotoxicity Tr,wheat (Tr) [12],2
same,Herbicidal effects Ab,China jute (Ab) [13],5
same,Herbicidal effects Ch,[14],5
same,Herbicidal effects Po,pale smartweed (Po) [15],5
same,Herbicidal effects Am,slender amaranth (Am) [16],5
C#CCN1C(=O)COc2cc(F)c(-c3cc(C)c(C(F)(F)F)n(C)c3=O)cc21 [Compound 2-2],Herbicidal effects Ec,barnyardgrass (Ec) [1],5
same,Herbicidal effects Sc,bulrush (Sc),5
same,Herbicidal effects Mo,monochoria (Mo),5
same,Herbicidal effects Di,Digitaria ciliaris (Di); [30],5
same,Herbicidal effects Ec,barnyardgrass (Ec) [2]; [30],5
same,Herbicidal effects Ch,[3]; [30],5
same,Herbicidal effects Po,pale smartweed (Po) [4]; [30],5
same,Herbicidal effects Ci,rice flatsedge (Ci) [5]; [30],5
same,Herbicidal effects Am,slender amaranth (Am) [6]; [30],5
same,Herbicidal effects Di,Diaitaria ciliaris (Di); [31],5
same,Herbicidal effects Ec,barnyardgrass (Ec) [7]; [31],5
same,Herbicidal effects Ch,[8]; [31],5
same,Herbicidal effects Po,pale smartweed (Po) [9]; [31],5
same,Herbicidal effects Ci,rice flatsedge (Ci) [10]; [31],5
same,Herbicidal effects Am,slender amaranth (Am) [11]; [31],5
same,Phytotoxicity Tr,wheat (Tr) [17]; dose 6.3 g ai/10a,2
same,Herbicidal effects Ab,China jute (Ab) [18]; dose 6.3 g ai/10a,5
same,Herbicidal effects Ch,[19]; dose 6.3 g ai/10a,5
same,Herbicidal effects Se,green foxtail (Se) [20]; dose 6.3 g ai/10a,5
same,Herbicidal effects Po,pale smartweed (Po) [21]; dose 6.3 g ai/10a,5
same,Herbicidal effects Am,slender amaranth (Am) [22]; dose 6.3 g ai/10a,5
CCn1c(=O)sc2cc(F)c(-c3ccc(C(F)(F)F)n(C)c3=O)cc21 [Compound 3-7],Herbicidal effects Ec,barnyardgrass (Ec) [1],5
same,Herbicidal effects Sc,bulrush (Sc),5
same,Herbicidal effects Mo,monochoria (Mo),5
same,Herbicidal effects Di,Digitaria ciliaris (Di); [30],5
same,Herbicidal effects Ec,barnyardgrass (Ec) [2]; [30],5
same,Herbicidal effects Ch,[3]; [30],5
same,Herbicidal effects Po,pale smartweed (Po) [4]; [30],5
same,Herbicidal effects Ci,rice flatsedge (Ci) [5]; [30],5
same,Herbicidal effects Am,slender amaranth (Am) [6]; [30],5
same,Herbicidal effects Di,Diaitaria ciliaris (Di); [31],5
same,Herbicidal effects Ec,barnyardgrass (Ec) [7]; [31],5
same,Herbicidal effects Ch,[8]; [31],5
same,Herbicidal effects Po,pale smartweed (Po) [9]; [31],5
same,Herbicidal effects Ci,rice flatsedge (Ci) [10]; [31],5
same,Herbicidal effects Am,slender amaranth (Am) [11]; [31],5
same,Phytotoxicity Tr,wheat (Tr) [12],2
same,Herbicidal effects Ab,China jute (Ab) [13],5
same,Herbicidal effects Ch,[14],5
same,Herbicidal effects Po,pale smartweed (Po) [15],5
same,Herbicidal effects Am,slender amaranth (Am) [16],5
CC(Br)c1cc2c(-c3ccc(C(F)(F)F)n(C)c3=O)c(F)cc(Cl)c2o1 (stereo not drawn) [Compound 4-34],Herbicidal effects Ec,barnyardgrass (Ec) [1],5
same,Herbicidal effects Sc,bulrush (Sc),5
same,Herbicidal effects Mo,monochoria (Mo),5
same,Herbicidal effects Di,Digitaria ciliaris (Di); [30],5
same,Herbicidal effects Ec,barnyardgrass (Ec) [2]; [30],5
same,Herbicidal effects Ch,[3]; [30],5
same,Herbicidal effects Po,pale smartweed (Po) [4]; [30],5
same,Herbicidal effects Ci,rice flatsedge (Ci) [5]; [30],5
same,Herbicidal effects Am,slender amaranth (Am) [6]; [30],5
same,Herbicidal effects Di,Diaitaria ciliaris (Di); [31],5
same,Herbicidal effects Ec,barnyardgrass (Ec) [7]; [31],5
same,Herbicidal effects Ch,[8]; [31],5
same,Herbicidal effects Po,pale smartweed (Po) [9]; [31],5
same,Herbicidal effects Ci,rice flatsedge (Ci) [10]; [31],5
same,Herbicidal effects Am,slender amaranth (Am) [11]; [31],5
same,Phytotoxicity Tr,wheat (Tr) [12],2
same,Herbicidal effects Ab,China jute (Ab) [13],5
same,Herbicidal effects Ch,[14],5
same,Herbicidal effects Po,pale smartweed (Po) [15],5
same,Herbicidal effects Am,slender amaranth (Am) [16],5
Cn1c(C(F)(F)F)ccc(-c2cc(Oc3ncccn3)c(Cl)cc2F)c1=O [Compound No. 1-27],Herbicidal effects Ec,barnyardgrass (Ec) [1],5
same,Herbicidal effects Sc,bulrush (Sc),5
same,Herbicidal effects Mo,monochoria (Mo),5
same,Herbicidal effects Di,Digitaria ciliaris (Di); [28],5
same,Herbicidal effects Ec,barnyardgrass (Ec) [2]; [28],5
same,Herbicidal effects Ch,[3]; [28],5
same,Herbicidal effects Po,pale smartweed (Po) [4]; [28],5
same,Herbicidal effects Ci,rice flatsedge (Ci) [5]; [28],5
same,Herbicidal effects Am,slender amaranth (Am) [6]; [28],5
same,Herbicidal effects Di,Diaitaria ciliaris (Di); [29],5
same,Herbicidal effects Ec,barnyardgrass (Ec) [7]; [29],5
same,Herbicidal effects Ch,[8]; [29],5
same,Herbicidal effects Po,pale smartweed (Po) [9]; [29],5
same,Herbicidal effects Ci,rice flatsedge (Ci) [10]; [29],5
same,Herbicidal effects Am,slender amaranth (Am) [11]; [29],5
same,Phytotoxicity Go,cotton (Go); dose 1.6 g ai/10 a,1
same,Phytotoxicity Go,cotton (Go); dose 6.3 g ai/10 a,1
same,Herbicidal effects Ab,China jute (Ab) [23]; dose 1.6 g ai/10 a,5
same,Herbicidal effects Ab,China jute (Ab) [23]; dose 6.3 g ai/10 a,5
same,Herbicidal effects Ch,[24]; dose 1.6 g ai/10 a,5
same,Herbicidal effects Ch,[24]; dose 6.3 g ai/10 a,5
same,Herbicidal effects Se,green foxtail (Se) [25]; dose 1.6 g ai/10 a,5
same,Herbicidal effects Se,green foxtail (Se) [25]; dose 6.3 g ai/10 a,5
same,Herbicidal effects Po,pale smartweed (Po) [26]; dose 1.6 g ai/10 a,5
same,Herbicidal effects Po,pale smartweed (Po) [26]; dose 6.3 g ai/10 a,5
same,Herbicidal effects Am,slender amaranth (Am) [27]; dose 1.6 g ai/10 a,5
same,Herbicidal effects Am,slender amaranth (Am) [27]; dose 6.3 g ai/10 a,5
same,Phytotoxicity Tr,wheat (Tr) [17]; dose 1.6 g ai/10a,1
same,Herbicidal effects Ab,China jute (Ab) [18]; dose 1.6 g ai/10a,5
same,Herbicidal effects Ch,[19]; dose 1.6 g ai/10a,5
same,Herbicidal effects Se,green foxtail (Se) [20]; dose 1.6 g ai/10a,5
same,Herbicidal effects Po,pale smartweed (Po) [21]; dose 1.6 g ai/10a,5
same,Herbicidal effects Am,slender amaranth (Am) [22]; dose 1.6 g ai/10a,5
